Experimental data from patent publication US6693118B2, “Use of 4-substituted tetrahydropyridines for the manufacture of medicaments acting upon TGF-β1” (Sanofi-Synthelabo, priority 1997, dated 2004).

Experiments:
Assay type in all cases: cell-based
[1] = test system: smooth muscle cells isolated from the human aorta; experiment: Anti-apoptotic effect, apoptosis induced by NGF (oligonucleosome ELISA); conditions: NGF 0.01 ng/ml to 100 ng/ml; after 24 hours of contact with the cells
Method: (§1) The anti-apoptotic activity was measured on the same cells vis-à-vis the pro-apoptotic activity of a deprivation in serum or after the addition of toxic compounds such as vincristine or growth factors such as nerve growth factor (NGF) with the aid of a specific ELISA (enzyme-linked immunosorbent assay) determination kit which detects the presence of oligonucleosomes the presence of which inside the cells is a specific marker of programmed cell death (apoptosis), according to the method described by Del Bino G. et al., (Experimental Cell Research, 193, 27, 1991 and 195, 485, 1991) or Darzynkiewicz A et al., (Cytometry, 13, 795, 1992).
(§2) 40,000 smooth muscle cells isolated from the human aorta (supplier: CLONETICS) are placed, in a […], in a medium containing 2 ml of DMEM (Dulbecco Modified Eagle Medium containing 4.5 g/l of glucose, 3.7 g/l of NaHCO3 and not containing any L-glutamine or Na-pyruvate). 20% v/v of foetal calf serum which was desupplemented for 30 min at […] , 4 mM L-glutamine, 50 U/ml of penicillin and 50 μg/ml of streptomycin are added. The cells are left in this medium for a growth period of three days before submitting them to tests according to the examples given further on.
(§3) Dishes containing the cells are prepared as in PREPARATION 1. Apoptosis is induced by three different methods:
b) by adding increasing doses of NGF (0.01 ng/ml to 100 ng/ml) to the medium described in PREPARATION 1;
(§4) By an ELISA determination test of the mono- and oligo-nucleosomes associated with cytoplasmic histones after washing and cellular lysis, the effects of the compounds of the invention upon the apoptosis are measured after 24 hours of contact with the cells in comparison with the levels of apoptosis obtained in the absence of products (maximum apoptosis level) or in the presence of 20% foetal calf serum (minimum apoptosis level).
Dishes containing cells are prepared as in PREPARATION 1. Apoptosis is induced according to method b) of PREPARATION 4. The apoptosis levels are measured after 24 hours of contact with the cells by the method described in PREPARATION 4; the same controls as in PREPARATION 4 are used.

[2] = test system: smooth muscle cells isolated from the human aorta; experiment: Anti-apoptotic effect, apoptosis induced by vincristine (oligonucleosome ELISA); conditions: Vincristin 0.1 pg/ml to 10 ng/ml; after 24 hours of contact with the cells
Method: as §1, §2, §3
c) by adding increasing doses of Vincristin (0.1 pg/ml to 10 ng/ml) to the medium described in PREPARATION 1.
as §4
Dishes containing cells are prepared as described in PREPARATION 1. Apoptosis is induced according to method c) of PREPARATION 4. The levels of apoptosis are measured after 24 hours of contact with the cells by the method described in PREPARATION 4; the same controls as in PREPARATION 4 are used.

TGF-β1 = experiment: Levels of latent and activated TGF-β1 in extracellular media of smooth muscle cell cultures (ELISA); conditions: human aortic smooth muscle cells, 0.2% foetal calf serum; after 14 hours of contact with the cells
Method: The effect of the compounds of formula (I) upon the increase of the levels of TGF-β1 was evaluated with the aid of tests upon the smooth muscle cells, as well as upon the blood levels and the diaphragms in the rat after administration of the representative compounds of the invention.
Both latent TGF-β1 and activated TGF-β1 were determined on the smooth muscle cells by incubation with hydrochloric acid.
40,000 smooth muscle cells isolated from the human aorta (supplier: CLONETICS) are placed, in a […], in a medium containing 2 ml of DMEM (Dulbecco Modified Eagle Medium containing 4.5 g/l of glucose, 3.7 g/l of NaHCO3 and not containing any L-glutamine or Na-pyruvate). […]
Dishes containing cells are prepared as described in Preparation 1. […] The activated TGF-β1 is determined directly in the supernatants of the culture, but the latent TGF-β1 is determined after activation. […]
Dishes containing cells are prepared as in PREPARATION 1. The levels of TGF-β1 are measured as described in PREPARATION 2. The levels of activated TGF-β1 are measured in the extracellular media in the presence of SR 57746A after 1, 3, 14, 24 and 48 hours and 7 days of contact with the cells, in comparison with the controls (0.2% foetal calf serum and 20% foetal calf serum) by the method described in PREPARATION 2.

SMILES | pro-apoptotic effect of NGF [1] | pro-apoptotic effect of vincristine [2] | levels of activated TGF-β1 in the extracellular media (TGF-β1)
CCc1ccc(CCN2CC=C(c3cccc(C(F)(F)F)c3)CC2)cc1CC [compound A, 1-[2-(3,4-diethylphenyl)ethyl]-4-(3-trifluoromethylphenyl)-1,2,3,6-tetrahydropyridine] | significantly inhibit | significantly inhibit | 
O=C(CN1CC=C(c2cccc(C(F)(F)F)c2)CC1)c1ccc(-c2ccccc2)cc1 [compound B, 1-[2-(biphenyl-4-yl)-2-oxoethyl]-4-(3-trifluoromethylphenyl)-1,2,3,6-tetrahydropyridine] | significantly inhibit | significantly inhibit | 
FC(F)(F)c1cccc(C2=CCN(CCc3ccc(-c4ccccc4)cc3)CC2)c1 [compound C, 1-[2-(biphenyl-4-yl)ethyl]-4-(3-trifluoromethylphenyl)-1,2,3,6-tetrahydropyridine] | significantly inhibit | significantly inhibit | 
FC(F)(F)c1cccc(C2=CCN(CCc3ccc4ccccc4c3)CC2)c1 [SR 57746, 1-(2-naphth-2-ylethyl)-4-(3-trifluoromethylphenyl)-1,2,3,6-tetrahydropyridine] | significantly inhibit | significantly inhibit | significant increase
FC(F)(F)c1ccccc1C1=CCN(CCc2ccc(-c3ccccc3)cc2)CC1 [compound F, 1-[2-(biphenyl-4-yl)ethyl]-4-(2-trifluoromethylphenyl)-1,2,3,6-tetrahydropyridine] | significantly inhibit | significantly inhibit | 
FC(F)(F)c1cccc(C2=CCN(CCc3ccc(C4=CCCCC4)cc3)CC2)c1 [compound E, 1-[2-(4-cyclohexenylphenyl)ethyl]-4-(3-trifluoromethylphenyl)-1,2,3,6-tetrahydropyridine] | significantly inhibit | significantly inhibit | 
FC(F)(F)c1cccc(C2=CCN(CCc3ccc4cc5c(cc4c3)OCO5)CC2)c1 [compound D, 1-[2-(6,7-methylenedioxynaphth-2-yl)ethyl]-4-(3-trifluoromethylphenyl)-1,2,3,6-tetrahydropyridine] | significantly inhibit | significantly inhibit | 
